In the supplement of paper PMC9151546:

Tests used:
[1] = tested on: CHO-K1; assay: benchmark concentration for 60% increase in hypodiploid frequency (BMC60); higher = less potent aneugen
Procedure: (§1)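 Benchmark concentration modelling (PROAST, Hill/exponential model families) of the 19-concentration flow-cytometric micronucleus assay in CHO-K1 cells, with and without rat liver S9. Only non-cytotoxic and adequate (relative survival >=40%) concentrations were used. BMR was a 30% increase in %MN (BMC30) or a 60% increase in %hypodiploid (BMC60) over control.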

[2] = tested on: CHO-K1; assay: benchmark concentration for 30% increase in micronucleus frequency (BMC30); higher = less potent clastogen
Procedure: as §1

[3] = S9 metabolic activation: without S9
[4] = S9 metabolic activation: with S9

| SMILES | benchmark concentration [1, 3] | benchmark concentration [2, 3] | benchmark concentration [2, 4] | benchmark concentration [1, 4] |
| --- | --- | --- | --- | --- |
| C=CC(=O)NCNC(=O)C=C [N,N'-Methylenebisacrylamide] | 62 µM | 44 µM |  |  |
| Oc1ccc(Cl)cc1Cl [2,4-Dichlorophenol] | 20 µM | 17 µM | 17 µM |  |
| c1ccc2c(c1)Nc1ccccc1S2 [Phenothiazine] |  |  | 17 µM | 25 µM |
| NC(=Nc1ccccc1)Nc1ccccc1 [1,3-Diphenylguanidine] | 67 µM | 78 µM |  |  |
| OCCCl [2-Chloroethanol] | 130 µM | 60 µM |  |  |
| CC(O)CO (stereo unspecified) [1,2-Propylene glycol] | 44 µM | 130 µM |  |  |
| Cc1cc(-c2ccc(N)c(C)c2)ccc1N [3,3'-Dimethylbenzidine] | 20 µM | 99 µM |  |  |
| CC(C)(c1ccccc1)c1ccc(O)cc1 [4-Cumylphenol] | 44 µM | 26 µM |  |  |
| c1ccc2c(c1)-c1cccc3c1c-2cc1ccccc13 [Benzo(b)fluoranthene] | 93 µM | 130 µM |  |  |
| O=S1(=O)CCCO1 [1,3-Propane sultone] | 80 µM | 110 µM |  |  |
| C/C=C/C=C/C(=O)O [Sorbic acid] | 37 µM | 29 µM |  |  |
| C[C@]12CC[C@@H]3c4ccc(O)cc4CC[C@H]3[C@@H]1CCC2=O [Estrone] | 5.3 µM | < 4.5 µM |  |  |
| O=C(O)C(Cl)Cl [Dichloroacetic acid] | 95 µM | 94 µM |  |  |
| CCC(C)c1ccccc1O (stereo unspecified) [2-(Butan-2-yl)phenol] | 170 µM |  | 23 µM | 30 µM |
| Nc1ccc(Nc2ccccc2)cc1 [N-Phenyl-1,4-benzenediamine] | < 4.5 µM |  | 87 µM |  |
| CN(C)c1ccc(C(=C2C=CC(=[N+](C)C)C=C2)c2ccc(N(C)C)cc2)cc1 [Gentian Violet] |  |  | 0.91 µM | 0.23 µM |
| Cc1cc(O)ccc1Cl [4-Chloro-3-methylphenol] | 46 µM | 41 µM | 18 µM |  |

| SMILES | benchmark concentration [1, 3] | benchmark concentration [2, 3] | benchmark concentration [2, 4] | benchmark concentration [1, 4] |
| --- | --- | --- | --- | --- |
| CCCCCCCC1CCC(=O)O1 (stereo unspecified) [5-Heptyldihydro-2(3H)-furanone] | 79 µM | 75 µM |  |  |
| c1cc2c3c(cccc3c1)CC2 [Acenaphthene] |  | 78 µM | 59 µM | 89 µM |
| Nc1ccc(Oc2ccc(N)cc2)cc1 [4,4'-Oxydianiline] | 31 µM | 60 µM |  |  |
| O=NN(c1ccccc1)c1ccccc1 [N-Nitrosodiphenylamine] | 25 µM | 72 µM | 120 µM |  |
| CCC(C)(C)c1ccc(O)cc1 [4-(2-Methylbutan-2-yl)phenol] | 140 µM |  | 81 µM |  |
| O=c1c(-c2ccc(O)cc2)coc2cc(O)ccc12 [Daidzein] |  |  | 14 µM | 47 µM |
| ClC1=C(Cl)C2(Cl)C3C4OC4C(Cl)C3C1(Cl)C2(Cl)Cl (stereo unspecified) [Heptachlor epoxide] | 28 µM | 25 µM | 45 µM |  |
| O=C1CN(/N=C/c2ccc([N+](=O)[O-])o2)C(=O)N1 [Nitrofurantoin] | 31 µM | 55 µM |  |  |
| c1ccc(NNc2ccccc2)cc1 [1,2-Diphenylhydrazine] | 68 µM | 46 µM | 22 µM | 45 µM |
| Cc1cccc([N+](=O)[O-])c1C [1,2-Dimethyl-3-nitrobenzene] | 38 µM | 41 µM | 59 µM |  |
| Oc1cc(Cl)c(Cl)cc1Cl [2,4,5-Trichlorophenol] | 38 µM |  | 6.5 µM |  |
| CC1(C)NC(=O)N(c2ccc([N+](=O)[O-])c(C(F)(F)F)c2)C1=O [Nilutamide] | 39 µM | 21 µM |  |  |
| COc1ccc(C)cc1N [2-Methoxy-5-methylaniline] | 89 µM | 48 µM |  |  |
| Nc1ccc2ccccc2c1 [2-Naphthylamine] | 47 µM | 51 µM |  | 43 µM |
| C=CCOC(=O)c1ccccc1C(=O)OCC=C [Diallyl phthalate] | 65 µM |  | 61 µM |  |
| Cc1ccccc1N [2-Methylaniline] | 49 µM | 21 µM |  |  |
